Assay results as given in patent US20250152719A1, “FUSED IMIDE DERIVATIVE” (Chia Tai Tianqing Pharmaceutical Group Co., Ltd., priority 2021, published 2025).

Legend:
TMD8-BTK(C481S) cells = assay: Inhibitory activity on TMD8-BTK(C481S) cell proliferation (CCK-8); assay type: cell-based; details: 72 h, 72 h incubation
Outline: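 Cells seeded at 8×10^4 cells/mL, incubated overnight, then treated in duplicate with compounds at 5000 nM-0.31 nM for 72 h. Viability by CCK-8 (4 h, absorbance 450 nm); IC50 from four-parameter dose-response fits.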

BTK(WT) kinase = BTK(WT) kinase (Homo sapiens (Human), UniProt Q06187); assay: Inhibitory activity on BTK(WT) kinase; assay type: biochemical; details: ATP 10 μM
Protocol: The Assay Buffer was prepared, and the composition of the Assay Buffer was 50 mM Hepes (Gibco, 15630), 10 mM MgCl2, 2 mM DTT, 1 mM EGTA, and 0.010% Tween 20. BTK(WT) kinase (Life, PR5442A), ATP (Sigma, A7699), and ULight-poly GT (PE, TRF0100-M) working solutions were prepared using the Assay Buffer. EDTA and Eu-labeled anti-phosphotyrosine (PT66) antibody (PE, AD0069) working solutions were prepared using the Detection Buffer (PE, CR97-100). 6 μL of BTK(WT) kinase at the corresponding concentration (final concentration: 0.003 ng/L) was added to the compound groups and the control group, while 6 μL of the Assay Buffer was added to the blank group, and then the compounds (with the concentration set to 1000 nM at the maximum, 4-fold dilution, 7 concentration gradients) were each added using a nanoliter pipettor. The mixture was incubated at room temperature for 30 min, and then 4 μL of the mixture of ATP (final concentration: 10 μM) and ULight-poly GT (final concentration: 100 nM) was added. After incubation at room temperature for 2 h, 5 μL of EDTA (final concentration: 10 mM) was added to stop the reaction, and finally 5 μL of antibody (final concentration: 2 nM) was added. After incubation at room temperature for 1 h, signal values were detected at 665/615 nM, the four-parameter analysis was performed, the dose-response curves were fit, and IC50 was calculated.

TMD-8 xenograft tumors = assay: In vivo drug efficacy, TMD-8 mouse subcutaneous xenograft tumors; set-up: species or system NOD-SCID mice; details: 30 mg/kg, qd, i.g.
Protocol: TMD-8 mouse subcutaneous xenograft tumors: TMD-8 (WT) cells at a concentration of 1×10^8/mL were inoculated under aseptic conditions into the right side armpit of NOD-SCID mice at 0.1 mL/mouse. After subcutaneous grafting, the animals were divided into groups with 6 animals in each group when the tumor volume reached about 188 mm^3 (or 200 mm^3):
model group: vehicle, 6 mice; compound administration groups: 30 mg/kg, qd, i.g., 6 mice.
The vehicle or the test compound was intragastrically given at a volume of 4 mL/kg, once daily for 16 consecutive days. The tumor volume was measured 2-3 times a week, and meanwhile, the mice were weighed and the data were recorded; the general behaviors of the animals were observed every day. After all dosing was complete, the animals were sacrificed on day 17, and the tumors were removed and weighed.
The tumor volume and the tumor growth inhibition were calculated using the following formulae:
Tumor volume (TV)=(Length×Width^2)/2.
Tumor growth inhibition (TGI)=(1−tumor weight of treatment group/tumor weight of model group)×100%.

[1] = In vitro liver microsomal stability, mouse; details: 0.5 mg/mL microsomes, NADPH, 37° C., 1 h
Protocol: (§1) Liver microsome incubation samples were prepared by mixing a PBS buffer (pH 7.4), a liver microsome solution (0.5 mg/mL), a test compound, and an NADPH+MgCl2 solution and incubated at 37° C. and 300 rpm for 1 h. Zero-hour samples were prepared by mixing a PBS buffer (pH 7.4), a liver microsome solution (0.5 mg/mL), and a test compound. An acetonitrile solution containing an internal standard was added to the samples, and supernatants were prepared by protein precipitation, diluted, and then assayed by LC/MS/MS.

[2] = test system: OCI-LY10-BTK(C481S) cells; assay: Inhibitory activity on OCI-LY10-BTK(C481S) cell proliferation (CCK-8); assay type: cell-based; details: 72 h incubation, IC50 per method, unit inferred
Protocol: OCI-LY10(C481S) cells in the logarithmic growth phase were collected and added to a centrifuge tube, adjusted to a cell density of 5×10^4 cells/mL, and seeded in a 96-well plate (100 μL/well). Meanwhile, compounds were added using a nanoliter pipettor such that the final concentrations of the compounds were 5000 nM-0.31 nM; the addition was performed in duplicate, and meanwhile, a control was set. After another 72 h of incubation in the cell incubator, the detection reagent CCK-8 (manufacturer: Dojindo Laboratories, Beijing; 10 μL/well) was added. After 3 h of incubation in the cell incubator, absorbance values were detected at 450 nm using a PerkinElmer Envision microplate reader, the four-parameter analysis was performed, the dose-response curves were fit, and IC50 was calculated.

[3] = In vitro liver microsomal stability, human; assay type: in vitro ADME; details: 0.5 mg/mL microsomes, NADPH, 37° C., 1 h
Protocol: as §1

Sequence of BTK(WT) kinase (Q06187 whole entry): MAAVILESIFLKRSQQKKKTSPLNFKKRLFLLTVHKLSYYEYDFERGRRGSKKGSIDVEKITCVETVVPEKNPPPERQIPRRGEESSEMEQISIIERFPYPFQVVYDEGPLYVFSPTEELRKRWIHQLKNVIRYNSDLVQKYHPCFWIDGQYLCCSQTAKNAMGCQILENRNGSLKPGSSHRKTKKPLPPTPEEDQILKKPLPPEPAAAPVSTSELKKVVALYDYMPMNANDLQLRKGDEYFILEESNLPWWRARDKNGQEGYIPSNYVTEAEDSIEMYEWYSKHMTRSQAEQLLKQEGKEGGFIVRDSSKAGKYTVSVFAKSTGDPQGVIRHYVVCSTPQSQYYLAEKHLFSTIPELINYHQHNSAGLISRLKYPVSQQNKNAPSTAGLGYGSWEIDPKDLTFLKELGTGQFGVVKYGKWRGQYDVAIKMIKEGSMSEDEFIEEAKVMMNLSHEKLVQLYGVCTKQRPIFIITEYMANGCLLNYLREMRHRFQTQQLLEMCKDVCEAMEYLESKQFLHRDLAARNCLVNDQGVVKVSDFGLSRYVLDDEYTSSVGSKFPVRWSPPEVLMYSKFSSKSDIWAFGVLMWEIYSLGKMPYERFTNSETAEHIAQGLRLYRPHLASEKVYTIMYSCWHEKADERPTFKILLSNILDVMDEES

SMILES: CN1CCN([C@@H]2CCCN(c3cnc(C(N)=O)c(Nc4ccc(C5CCN(C6CN(c7ccc8c(C9CCC(=O)NC9=O)noc8c7)C6)CC5)cc4)n3)C2)C1=O (some centres unmarked) [Compound 10]
- IC50 (TMD8-BTK(C481S) cells): 2.4 nM
- IC50 (BTK(WT) kinase): 7.1 nM
- TGI d 17 (TMD-8 xenograft tumors; 16 days, tumor weight on day 17): 97.5%
- TV on d 0 Mean ± SD (TMD-8 xenograft tumors; day 0 (baseline at grouping)): 226 ± 29 mm^3
- TV on d 12 Mean ± SD (TMD-8 xenograft tumors; day 12): 235 ± 57 mm^3
- TV on d 15 Mean ± SD (TMD-8 xenograft tumors; day 15): 209 ± 60 mm^3
- Mouse liver microsome Residuals at 60 min [1]: 65.4%

SMILES: CN1CCN([C@@H]2CCCN(c3cnc(C(N)=O)c(Nc4ccc(N5CCC(CN6CCc7ccc8c(C9CCC(=O)NC9=O)noc8c7CC6)CC5)cc4)n3)C2)C1=O (some centres unmarked) [Compound 27]
- IC50 ([2]; 72 h): 0.062 nM
- IC50 (BTK(WT) kinase): 0.96 nM
- Human liver microsome Residuals at 60 min [3]: 56.0%

SMILES: CN1CCN([C@@H]2CCCN(c3cnc(C(N)=O)c(Nc4ccc(C5CCC(N6Cc7ccc8c(C9CCC(=O)NC9=O)noc8c7C6)CC5)cc4)n3)C2)C1=O (some centres unmarked) [Compound 33]
- IC50 [2]: 0.37 nM
- IC50 (BTK(WT) kinase): 11 nM
- Human liver microsome Residuals at 60 min [3]: 55.0%
- Mouse liver microsome Residuals at 60 min [1]: 71.0%
